Tests used:
Assay in all cases: radiometric filter-binding kinase assay
[1] = test system: AKT2 (human), P31751 [S474D]
CAMKK2 (human) = CAMKK2 (human) (UniProt Q96RR4)
CHEK1 (human) = CHEK1 (human) (UniProt O14757)
CLK2 (human) = CLK2 (human) (UniProt P49760)
CSNK1D (human) = CSNK1D (human) (UniProt P48730)
DYRK1A (human) = DYRK1A (human) (UniProt Q13627)
EPHA4 (human) = EPHA4 (human) (UniProt P54764)
HIPK3 (human) = HIPK3 (human) (UniProt Q9H422)
IGF1R (human) = IGF1R (human) (UniProt P08069)
IKBKE (human) = IKBKE (human) (UniProt Q14164)
IRAK4 (human) = IRAK4 (human) (UniProt Q9NWZ3)
MAP3K7 TAB1 (human) = MAP3K7 TAB1 (human) (UniProt Q15750+O43318)
Chain of MAP3K7 TAB1 (human) (O43318 whole entry, looked up): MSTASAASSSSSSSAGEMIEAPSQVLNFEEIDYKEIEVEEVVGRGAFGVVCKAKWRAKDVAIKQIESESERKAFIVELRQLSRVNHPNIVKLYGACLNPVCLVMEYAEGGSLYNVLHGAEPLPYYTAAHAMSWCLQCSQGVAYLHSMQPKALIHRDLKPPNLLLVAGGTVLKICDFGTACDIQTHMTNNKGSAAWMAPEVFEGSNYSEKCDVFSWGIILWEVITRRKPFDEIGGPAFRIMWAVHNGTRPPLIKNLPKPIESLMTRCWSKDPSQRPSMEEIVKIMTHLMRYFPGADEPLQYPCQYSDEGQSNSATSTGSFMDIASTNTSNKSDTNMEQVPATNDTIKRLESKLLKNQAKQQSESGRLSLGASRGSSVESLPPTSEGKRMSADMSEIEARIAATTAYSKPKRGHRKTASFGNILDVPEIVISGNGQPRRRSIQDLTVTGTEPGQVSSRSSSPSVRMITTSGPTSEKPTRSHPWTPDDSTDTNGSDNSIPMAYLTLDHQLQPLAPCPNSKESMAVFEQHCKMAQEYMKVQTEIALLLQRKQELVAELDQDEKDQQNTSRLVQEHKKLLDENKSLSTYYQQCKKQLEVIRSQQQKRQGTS
Chain of MAP3K7 TAB1 (human) (Q15750 whole entry, looked up): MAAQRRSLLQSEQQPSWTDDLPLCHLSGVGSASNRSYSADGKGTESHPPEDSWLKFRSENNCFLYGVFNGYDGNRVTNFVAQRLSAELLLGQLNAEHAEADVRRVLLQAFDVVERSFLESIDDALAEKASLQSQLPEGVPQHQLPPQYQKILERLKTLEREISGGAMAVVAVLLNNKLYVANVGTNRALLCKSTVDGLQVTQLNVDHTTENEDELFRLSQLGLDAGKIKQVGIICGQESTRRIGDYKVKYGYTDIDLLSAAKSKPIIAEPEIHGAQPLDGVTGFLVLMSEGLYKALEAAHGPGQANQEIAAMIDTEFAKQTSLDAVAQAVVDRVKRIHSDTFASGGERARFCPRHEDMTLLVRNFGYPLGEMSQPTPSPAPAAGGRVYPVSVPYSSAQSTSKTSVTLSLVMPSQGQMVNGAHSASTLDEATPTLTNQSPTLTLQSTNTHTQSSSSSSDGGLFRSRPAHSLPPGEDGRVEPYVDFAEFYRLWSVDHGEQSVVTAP

MAPK12 (human) = MAPK12 (human) (UniProt P53778)
MAPK14 (human) = MAPK14 (human) (UniProt Q16539)
Chain of MAPK14 (human) (Q16539 whole entry, looked up): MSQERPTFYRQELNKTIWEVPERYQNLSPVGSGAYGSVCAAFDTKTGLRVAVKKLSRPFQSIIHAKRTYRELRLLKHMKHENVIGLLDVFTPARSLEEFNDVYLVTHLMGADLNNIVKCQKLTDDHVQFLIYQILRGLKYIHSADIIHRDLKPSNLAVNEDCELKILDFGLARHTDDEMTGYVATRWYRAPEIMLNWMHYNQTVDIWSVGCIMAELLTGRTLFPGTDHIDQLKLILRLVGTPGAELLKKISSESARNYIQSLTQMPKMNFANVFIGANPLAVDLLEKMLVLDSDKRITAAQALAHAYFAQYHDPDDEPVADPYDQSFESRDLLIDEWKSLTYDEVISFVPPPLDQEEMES

MAPK15 (human) = MAPK15 (human) (UniProt Q8TD08)
Chain of MAPK15 (human) (Q8TD08 whole entry, looked up): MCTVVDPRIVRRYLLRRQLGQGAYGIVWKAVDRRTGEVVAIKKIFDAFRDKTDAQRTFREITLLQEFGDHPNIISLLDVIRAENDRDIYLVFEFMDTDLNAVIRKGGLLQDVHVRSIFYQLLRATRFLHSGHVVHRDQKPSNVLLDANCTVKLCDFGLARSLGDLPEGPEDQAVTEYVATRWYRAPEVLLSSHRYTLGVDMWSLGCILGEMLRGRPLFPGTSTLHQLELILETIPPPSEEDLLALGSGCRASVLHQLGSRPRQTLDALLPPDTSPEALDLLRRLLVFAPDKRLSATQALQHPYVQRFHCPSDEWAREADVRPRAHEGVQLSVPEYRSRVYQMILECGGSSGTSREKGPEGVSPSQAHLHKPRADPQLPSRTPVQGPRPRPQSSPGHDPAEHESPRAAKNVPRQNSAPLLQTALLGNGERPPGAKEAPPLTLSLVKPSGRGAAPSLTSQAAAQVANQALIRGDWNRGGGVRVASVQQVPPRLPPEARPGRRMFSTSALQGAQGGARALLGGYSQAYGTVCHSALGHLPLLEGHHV

MAPK3 (human) = MAPK3 (human) (UniProt P27361)
MAPKAPK2 (human) = MAPKAPK2 (human) (UniProt P49137)
MARK1 (human) = MARK1 (human) (UniProt Q9P0L2)
MARK2 (human) = MARK2 (human) (UniProt Q7KZI7)
MST4 (human) = MST4 (human) (UniProt Q9P289)
NEK2 (human) = NEK2 (human) (UniProt P51955)
NEK6 (human) = NEK6 (human) (UniProt Q9HC98)
[2] = test system: PAK2 (human), Q13177 [T402E]
PAK4 (human) = PAK4 (human) (UniProt O96013)
PAK6 (human) = PAK6 (human) (UniProt Q9NQU5)
PAK7 (human) = PAK7 (human) (UniProt Q9P286)
PIM2 (human) = PIM2 (human) (UniProt Q9P1W9)
PIM3 (human) = PIM3 (human) (UniProt Q86V86)
PKN2 (human) = PKN2 (human) (UniProt Q16513)
PLK1 (human) = PLK1 (human) (UniProt P53350)
Chain of PLK1 (human) (P53350 whole entry, looked up): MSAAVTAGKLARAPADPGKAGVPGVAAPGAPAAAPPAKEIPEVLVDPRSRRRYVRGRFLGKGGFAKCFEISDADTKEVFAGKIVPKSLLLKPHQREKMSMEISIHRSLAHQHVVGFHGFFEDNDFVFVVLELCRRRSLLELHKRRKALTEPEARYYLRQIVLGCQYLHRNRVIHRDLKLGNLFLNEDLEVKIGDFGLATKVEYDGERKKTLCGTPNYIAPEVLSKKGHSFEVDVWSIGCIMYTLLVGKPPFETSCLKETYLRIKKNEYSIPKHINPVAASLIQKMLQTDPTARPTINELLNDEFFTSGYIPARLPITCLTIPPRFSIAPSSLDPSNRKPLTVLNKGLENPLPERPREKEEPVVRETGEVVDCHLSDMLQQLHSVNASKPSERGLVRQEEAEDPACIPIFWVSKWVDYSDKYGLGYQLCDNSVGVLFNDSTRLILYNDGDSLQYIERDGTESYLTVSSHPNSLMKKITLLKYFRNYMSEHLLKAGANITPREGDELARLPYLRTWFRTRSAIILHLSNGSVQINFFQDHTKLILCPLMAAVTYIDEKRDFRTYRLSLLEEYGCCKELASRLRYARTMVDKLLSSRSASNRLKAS

RIPK2 (human) = RIPK2 (human) (UniProt O43353)
RPS6KA3 KD1 KD2 (human) = RPS6KA3 KD1 KD2 (human) (UniProt P51812)
RPS6KA5 KD1 KD2 (human) = RPS6KA5 KD1 KD2 (human) (UniProt O75582)
[3] = test system: SGK1 (human), O00141 [S422D]
Chain of SGK1 (human), O00141 [S422D] (O00141 whole entry S422D, looked up): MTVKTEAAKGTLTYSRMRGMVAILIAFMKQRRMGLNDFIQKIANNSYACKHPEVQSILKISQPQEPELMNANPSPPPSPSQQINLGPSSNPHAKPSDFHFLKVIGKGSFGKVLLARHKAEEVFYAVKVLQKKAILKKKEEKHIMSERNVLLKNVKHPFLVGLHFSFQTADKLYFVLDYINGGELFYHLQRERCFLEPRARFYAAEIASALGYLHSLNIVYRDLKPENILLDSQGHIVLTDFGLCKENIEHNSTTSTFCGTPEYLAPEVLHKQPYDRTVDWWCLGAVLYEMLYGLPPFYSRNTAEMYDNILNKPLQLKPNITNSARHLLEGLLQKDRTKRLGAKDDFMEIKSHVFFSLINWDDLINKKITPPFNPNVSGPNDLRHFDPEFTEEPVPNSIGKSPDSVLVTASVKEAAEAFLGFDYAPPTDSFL

SRPK1 (human) = SRPK1 (human) (UniProt Q96SB4)

Chain of CAMKK2 (human) (Q96RR4 whole entry, looked up): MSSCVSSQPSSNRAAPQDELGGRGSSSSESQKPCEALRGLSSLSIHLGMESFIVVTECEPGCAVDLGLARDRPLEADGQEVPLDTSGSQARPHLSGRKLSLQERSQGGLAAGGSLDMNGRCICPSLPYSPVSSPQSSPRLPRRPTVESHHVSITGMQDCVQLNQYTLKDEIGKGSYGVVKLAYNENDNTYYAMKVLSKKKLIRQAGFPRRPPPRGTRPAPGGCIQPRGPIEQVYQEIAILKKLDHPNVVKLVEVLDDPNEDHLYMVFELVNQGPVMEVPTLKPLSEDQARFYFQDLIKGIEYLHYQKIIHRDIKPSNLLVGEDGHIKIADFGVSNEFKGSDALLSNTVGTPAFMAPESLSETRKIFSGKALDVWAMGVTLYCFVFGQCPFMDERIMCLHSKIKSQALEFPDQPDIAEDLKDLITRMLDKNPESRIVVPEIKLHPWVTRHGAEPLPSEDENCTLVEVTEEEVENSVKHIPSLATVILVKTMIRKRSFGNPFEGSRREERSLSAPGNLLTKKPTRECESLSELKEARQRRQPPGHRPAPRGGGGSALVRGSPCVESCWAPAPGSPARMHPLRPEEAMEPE
Chain of AKT2 (human), P31751 [S474D] (P31751 whole entry S474D, looked up): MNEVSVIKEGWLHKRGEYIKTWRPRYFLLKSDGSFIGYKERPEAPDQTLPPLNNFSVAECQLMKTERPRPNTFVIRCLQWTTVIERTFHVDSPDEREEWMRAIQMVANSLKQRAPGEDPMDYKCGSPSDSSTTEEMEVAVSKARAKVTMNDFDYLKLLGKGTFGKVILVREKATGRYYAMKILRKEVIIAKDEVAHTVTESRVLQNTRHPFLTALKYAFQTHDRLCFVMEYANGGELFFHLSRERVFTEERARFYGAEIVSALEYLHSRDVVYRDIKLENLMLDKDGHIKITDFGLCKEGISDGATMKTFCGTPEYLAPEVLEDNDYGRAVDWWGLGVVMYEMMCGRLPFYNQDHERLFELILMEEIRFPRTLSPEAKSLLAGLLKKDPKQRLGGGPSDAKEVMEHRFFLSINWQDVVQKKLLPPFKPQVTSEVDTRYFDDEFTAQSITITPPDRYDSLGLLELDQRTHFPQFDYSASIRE
Chain of CLK2 (human) (P49760 whole entry, looked up): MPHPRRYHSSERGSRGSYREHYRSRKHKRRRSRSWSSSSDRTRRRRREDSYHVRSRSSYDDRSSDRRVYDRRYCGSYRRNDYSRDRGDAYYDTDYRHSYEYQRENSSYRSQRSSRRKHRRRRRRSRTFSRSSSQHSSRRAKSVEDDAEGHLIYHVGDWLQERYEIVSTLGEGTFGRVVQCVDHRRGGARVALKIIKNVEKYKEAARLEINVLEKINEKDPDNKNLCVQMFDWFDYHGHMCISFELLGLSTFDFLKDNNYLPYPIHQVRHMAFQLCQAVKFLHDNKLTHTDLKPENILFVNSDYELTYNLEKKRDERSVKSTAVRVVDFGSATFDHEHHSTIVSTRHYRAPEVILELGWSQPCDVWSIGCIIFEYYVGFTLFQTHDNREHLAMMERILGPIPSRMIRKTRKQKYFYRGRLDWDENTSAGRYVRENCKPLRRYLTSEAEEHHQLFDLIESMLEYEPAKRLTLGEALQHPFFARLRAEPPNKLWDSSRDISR

## O=c1c(O)c(-c2ccc(O)c(O)c2)oc2cc(O)c(O)c(O)c12
[1]; compound 1.0 µM
  residual activity: 21%
[1]; compound 10.0 µM
  residual activity: 1%
CAMKK2 (human); compound 1.0 µM
  residual activity: 72%
CAMKK2 (human); compound 10.0 µM
  residual activity: 61%
CHEK1 (human); compound 1.0 µM
  residual activity: 92%
CHEK1 (human); compound 10.0 µM
  residual activity: 32%
CLK2 (human); compound 1.0 µM
  residual activity: 58%
CSNK1D (human); compound 1.0 µM
  residual activity: 90%
CSNK1D (human); compound 10.0 µM
  residual activity: 29%
DYRK1A (human); compound 1.0 µM
  residual activity: 71%
DYRK1A (human); compound 10.0 µM
  residual activity: 3%
EPHA4 (human); compound 1.0 µM
  residual activity: 117%
EPHA4 (human); compound 10.0 µM
  residual activity: 74%
HIPK3 (human); compound 1.0 µM
  residual activity: 88%
HIPK3 (human); compound 10.0 µM
  residual activity: 55%
IGF1R (human); compound 1.0 µM
  residual activity: 96%
IGF1R (human); compound 10.0 µM
  residual activity: 43%
IKBKE (human); compound 1.0 µM
  residual activity: 69%
IKBKE (human); compound 10.0 µM
  residual activity: 21%
IRAK4 (human); compound 1.0 µM
  residual activity: 80%
IRAK4 (human); compound 10.0 µM
  residual activity: 46%
MAP3K7 TAB1 (human); compound 1.0 µM
  residual activity: 94%
MAP3K7 TAB1 (human); compound 10.0 µM
  residual activity: 5%
MAPK12 (human); compound 1.0 µM
  residual activity: 107%
MAPK12 (human); compound 10.0 µM
  residual activity: 88%
MAPK14 (human); compound 1.0 µM
  residual activity: 100%
MAPK14 (human); compound 10.0 µM
  residual activity: 119%
MAPK15 (human); compound 1.0 µM
  residual activity: 89%
MAPK15 (human); compound 10.0 µM
  residual activity: 65%
MAPK3 (human); compound 1.0 µM
  residual activity: 101%
MAPK3 (human); compound 10.0 µM
  residual activity: 54%
MAPKAPK2 (human); compound 1.0 µM
  residual activity: 94%
MAPKAPK2 (human); compound 10.0 µM
  residual activity: 53%
MARK1 (human); compound 1.0 µM
  residual activity: 40%
MARK1 (human); compound 10.0 µM
  residual activity: 11%
MARK2 (human); compound 1.0 µM
  residual activity: 86%
MARK2 (human); compound 10.0 µM
  residual activity: 26%
MST4 (human); compound 1.0 µM
  residual activity: 87%
MST4 (human); compound 10.0 µM
  residual activity: 58%
NEK2 (human); compound 1.0 µM
  residual activity: 86%
NEK2 (human); compound 10.0 µM
  residual activity: 13%
NEK6 (human); compound 1.0 µM
  residual activity: 99%
NEK6 (human); compound 10.0 µM
  residual activity: 21%
[2]; compound 1.0 µM
  residual activity: 96%
[2]; compound 10.0 µM
  residual activity: 98%
PAK4 (human); compound 1.0 µM
  residual activity: 50%
PAK4 (human); compound 10.0 µM
  residual activity: 38%
PAK6 (human); compound 1.0 µM
  residual activity: 58%
PAK6 (human); compound 10.0 µM
  residual activity: 60%
PAK7 (human); compound 1.0 µM
  residual activity: 67%
PAK7 (human); compound 10.0 µM
  residual activity: 55%
PIM2 (human); compound 1.0 µM
  residual activity: 74%
PIM2 (human); compound 10.0 µM
  residual activity: 11%
PIM3 (human); compound 1.0 µM
  residual activity: 34%
PIM3 (human); compound 10.0 µM
  residual activity: 0%
PKN2 (human); compound 1.0 µM
  residual activity: 106%
PKN2 (human); compound 10.0 µM
  residual activity: 102%
PLK1 (human); compound 1.0 µM
  residual activity: 107%
PLK1 (human); compound 10.0 µM
  residual activity: 23%
RIPK2 (human); compound 1.0 µM
  residual activity: 83%
RIPK2 (human); compound 10.0 µM
  residual activity: 7%
RPS6KA3 KD1 KD2 (human); compound 1.0 µM
  residual activity: 22%
RPS6KA3 KD1 KD2 (human); compound 10.0 µM
  residual activity: 12%
RPS6KA5 KD1 KD2 (human); compound 1.0 µM
  residual activity: 88%
RPS6KA5 KD1 KD2 (human); compound 10.0 µM
  residual activity: 38%
[3]; compound 1.0 µM
  residual activity: 87%
[3]; compound 10.0 µM
  residual activity: 24%
SRPK1 (human); compound 1.0 µM
  residual activity: 55%
SRPK1 (human); compound 10.0 µM
  residual activity: 3%

## NC(=O)c1ccc(-c2ccc(Oc3cncc4sc(-c5nn[nH]n5)cc34)cc2)cc1
[1]; compound 1.0 µM
  residual activity: 77%
[1]; compound 10.0 µM
  residual activity: 62%
CAMKK2 (human); compound 1.0 µM
  residual activity: 84%
CAMKK2 (human); compound 10.0 µM
  residual activity: 23%
CHEK1 (human); compound 1.0 µM
  residual activity: 79%
CHEK1 (human); compound 10.0 µM
  residual activity: 87%
CLK2 (human); compound 1.0 µM
  residual activity: 80%
CLK2 (human); compound 10.0 µM
  residual activity: 12%
CSNK1D (human); compound 1.0 µM
  residual activity: 90%
CSNK1D (human); compound 10.0 µM
  residual activity: 59%
DYRK1A (human); compound 1.0 µM
  residual activity: 21%
DYRK1A (human); compound 10.0 µM
  residual activity: 3%
EPHA4 (human); compound 1.0 µM
  residual activity: 103%
EPHA4 (human); compound 10.0 µM
  residual activity: 112%
HIPK3 (human); compound 1.0 µM
  residual activity: 96%
HIPK3 (human); compound 10.0 µM
  residual activity: 10%
IGF1R (human); compound 1.0 µM
  residual activity: 107%
IGF1R (human); compound 10.0 µM
  residual activity: 95%
IKBKE (human); compound 1.0 µM
  residual activity: 89%
IKBKE (human); compound 10.0 µM
  residual activity: 69%
IRAK4 (human); compound 1.0 µM
  residual activity: 88%
IRAK4 (human); compound 10.0 µM
  residual activity: 74%
MAP3K7 TAB1 (human); compound 1.0 µM
  residual activity: 82%
MAP3K7 TAB1 (human); compound 10.0 µM
  residual activity: 75%
MAPK12 (human); compound 1.0 µM
  residual activity: 86%
MAPK12 (human); compound 10.0 µM
  residual activity: 65%
MAPK14 (human); compound 1.0 µM
  residual activity: 106%
MAPK14 (human); compound 10.0 µM
  residual activity: 98%
MAPK15 (human); compound 1.0 µM
  residual activity: 85%
MAPK15 (human); compound 10.0 µM
  residual activity: 2%
MAPK3 (human); compound 1.0 µM
  residual activity: 97%
MAPK3 (human); compound 10.0 µM
  residual activity: 78%
MAPKAPK2 (human); compound 1.0 µM
  residual activity: 93%
MAPKAPK2 (human); compound 10.0 µM
  residual activity: 85%
MARK1 (human); compound 1.0 µM
  residual activity: 89%
MARK1 (human); compound 10.0 µM
  residual activity: 78%
MARK2 (human); compound 1.0 µM
  residual activity: 80%
MARK2 (human); compound 10.0 µM
  residual activity: 83%
MST4 (human); compound 1.0 µM
  residual activity: 93%
MST4 (human); compound 10.0 µM
  residual activity: 61%
NEK2 (human); compound 1.0 µM
  residual activity: 94%
NEK2 (human); compound 10.0 µM
  residual activity: 80%
NEK6 (human); compound 1.0 µM
  residual activity: 98%
NEK6 (human); compound 10.0 µM
  residual activity: 94%
[2]; compound 1.0 µM
  residual activity: 93%
[2]; compound 10.0 µM
  residual activity: 90%
PAK4 (human); compound 1.0 µM
  residual activity: 89%
PAK4 (human); compound 10.0 µM
  residual activity: 54%
PAK6 (human); compound 1.0 µM
  residual activity: 89%
PAK6 (human); compound 10.0 µM
  residual activity: 87%
PAK7 (human); compound 1.0 µM
  residual activity: 81%
PAK7 (human); compound 10.0 µM
  residual activity: 66%
PIM2 (human); compound 1.0 µM
  residual activity: 85%
PIM2 (human); compound 10.0 µM
  residual activity: 14%
PIM3 (human); compound 1.0 µM
  residual activity: 79%
PIM3 (human); compound 10.0 µM
  residual activity: 21%
PKN2 (human); compound 1.0 µM
  residual activity: 80%
PKN2 (human); compound 10.0 µM
  residual activity: 53%
PLK1 (human); compound 1.0 µM
  residual activity: 90%
PLK1 (human); compound 10.0 µM
  residual activity: 24%
RIPK2 (human); compound 1.0 µM
  residual activity: 94%
RIPK2 (human); compound 10.0 µM
  residual activity: 22%
RPS6KA3 KD1 KD2 (human); compound 1.0 µM
  residual activity: 77%
RPS6KA3 KD1 KD2 (human); compound 10.0 µM
  residual activity: 44%
RPS6KA5 KD1 KD2 (human); compound 1.0 µM
  residual activity: 90%
RPS6KA5 KD1 KD2 (human); compound 10.0 µM
  residual activity: 20%
[3]; compound 1.0 µM
  residual activity: 100%
[3]; compound 10.0 µM
  residual activity: 68%
SRPK1 (human); compound 1.0 µM
  residual activity: 99%
SRPK1 (human); compound 10.0 µM
  residual activity: 48%

From the kinase profiling compilation of Christmann-Franck et al. (2016)
